Measured values taken from PMC5791972 (PLoS ONE, 2018).
“Also recorded” adds a separate entry of the source. Where two headings read alike, the source gives them in different places.

Experiments:
CD-1 mice = experiment: Forced swim test
[1] = Brain homogenate assay (unbound fraction in brain); format: in vitro ADME; conditions: rat
Experimental: Frozen rat brains were homogenized in PBS buffer (dilution factor D = 4). The homogenate was spiked with test compounds (1 μM final concentration, final concentration of DMSO was 0.1%) and subsequently dialyzed against PBS buffer for 8 hrs at 37°C in rapid equilibrium dialysis cells (RED-device, Pierce). At the end of the dialysis period, the dialysate was transferred into reaction tubes and mixed with an analytical internal standard. Tissue homogenate was added to buffer samples and buffer was added to tissue samples to ensure identical matrix composition for bioanalytical measurement. After protein precipitation using acetonitrile, samples were measured by LC-MS/MS. The free fraction was calculated as fu,app = (CPBS/Chomogenate). Since the brains were homogenized in the buffer, the observed free fraction values (fu,app) were extrapolated to the fractions unbound in the brain (fu*) based on the dilution (D) using the following formula: fu*=(1/D)/((1/fu,app−1)+1/D).

PDE4D2 (h) = PDE4D2 (h) (Homo sapiens, UniProt Q08499); experiment: biochemical; conditions: 1.0E-06 M
rolipram = format: binding, mouse; conditions: 1.0E-06 M
β2 (h) = β2 (h) (Homo sapiens, UniProt P07550); format: binding; conditions: 1.0E-06 M
5-HT1D = 5-HT1D (Rattus norvegicus, UniProt P28565); experiment: biochemical
[2] = tested on: sigma (non-selective) (h); format: binding, human; conditions: 1.0E-06 M
5-HT2A (h) = target: T1, 5-HT2A (h) (Homo sapiens, UniProt P28223); format: binding
T1 construct: host or cells: HEK-293 cells

5-HT7 (h) = 5-HT7 (h) (Homo sapiens, UniProt P34969); experiment: biochemical
ATPase (Na+/K+) = experiment: enzyme assay; format: biochemical, porcine; conditions: 1.0E-06 M
CB2 (h) = target: T2, CB2 (h) (Homo sapiens, UniProt P34972); format: binding; conditions: 1.0E-06 M
T2 construct: host or cells: CHO cells

A3 (h) = target: T3, A3 (h) (Homo sapiens, UniProt P0DMS8); format: binding; conditions: 1.0E-06 M
T3 construct: host or cells: HEK-293 cells
T3 sequence (P0DMS8 1-318): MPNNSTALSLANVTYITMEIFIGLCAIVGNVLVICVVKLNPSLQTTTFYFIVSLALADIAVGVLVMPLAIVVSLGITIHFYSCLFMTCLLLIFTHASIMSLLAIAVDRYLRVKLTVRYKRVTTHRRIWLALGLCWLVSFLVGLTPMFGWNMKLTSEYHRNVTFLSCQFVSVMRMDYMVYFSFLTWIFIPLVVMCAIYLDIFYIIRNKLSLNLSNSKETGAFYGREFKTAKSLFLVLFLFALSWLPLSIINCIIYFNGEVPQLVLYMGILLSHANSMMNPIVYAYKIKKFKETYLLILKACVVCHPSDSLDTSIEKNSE

5-HT2C (h) = target: T4, 5-HT2C (h) (Homo sapiens, UniProt P28335); format: binding; conditions: 1.0E-06 M
T4 construct: host or cells: HEK-293 cells
T4 sequence (P28335 33-458): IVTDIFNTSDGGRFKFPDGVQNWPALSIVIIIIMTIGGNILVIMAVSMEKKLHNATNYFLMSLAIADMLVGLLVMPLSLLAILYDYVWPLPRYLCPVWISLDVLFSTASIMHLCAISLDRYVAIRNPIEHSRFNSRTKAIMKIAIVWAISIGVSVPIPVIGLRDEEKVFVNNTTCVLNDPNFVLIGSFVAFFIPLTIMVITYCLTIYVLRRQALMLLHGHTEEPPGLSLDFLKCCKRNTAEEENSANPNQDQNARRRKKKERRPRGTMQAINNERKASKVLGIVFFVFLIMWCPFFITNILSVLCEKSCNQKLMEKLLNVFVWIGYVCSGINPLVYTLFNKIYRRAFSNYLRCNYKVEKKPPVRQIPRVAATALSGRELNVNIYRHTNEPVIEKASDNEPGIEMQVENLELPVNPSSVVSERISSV

TNF-α (h) = format: binding, human; conditions: 1.0E-06 M
MC1 = target: T5, MC1 (Mus musculus, UniProt Q01727); format: binding; conditions: 1.0E-06 M
T5 construct: (endogenous); host or cells: B16-F1 cells

mTRPC4 = target: T6, mTRPC4 (Mus musculus, UniProt Q9QUQ5); experiment: Whole-cell manual patch clamp; format: cell-based; conditions: 10 µM carbachol /M1R
T6 construct: The cDNAs for various full-length ion channels were subcloned into pcDNA5/TO; expressed in transfected cells

MT1 (ML1A) (h) = target: T7, MT1 (ML1A) (h) (Homo sapiens, UniProt P48039); format: binding; conditions: 1.0E-06 M
T7 construct: host or cells: CHO cells
T7 sequence (P48039 whole entry): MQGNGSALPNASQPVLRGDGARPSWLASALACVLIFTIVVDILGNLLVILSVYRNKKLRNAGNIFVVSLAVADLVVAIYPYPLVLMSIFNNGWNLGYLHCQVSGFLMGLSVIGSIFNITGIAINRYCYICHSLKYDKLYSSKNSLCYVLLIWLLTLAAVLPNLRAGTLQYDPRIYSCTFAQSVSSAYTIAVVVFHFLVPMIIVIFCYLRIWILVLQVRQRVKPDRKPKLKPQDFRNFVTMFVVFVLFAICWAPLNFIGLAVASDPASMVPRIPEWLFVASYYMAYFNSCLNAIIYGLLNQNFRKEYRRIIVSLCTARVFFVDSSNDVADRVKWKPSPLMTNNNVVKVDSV

T1 sequence (P28223 whole entry): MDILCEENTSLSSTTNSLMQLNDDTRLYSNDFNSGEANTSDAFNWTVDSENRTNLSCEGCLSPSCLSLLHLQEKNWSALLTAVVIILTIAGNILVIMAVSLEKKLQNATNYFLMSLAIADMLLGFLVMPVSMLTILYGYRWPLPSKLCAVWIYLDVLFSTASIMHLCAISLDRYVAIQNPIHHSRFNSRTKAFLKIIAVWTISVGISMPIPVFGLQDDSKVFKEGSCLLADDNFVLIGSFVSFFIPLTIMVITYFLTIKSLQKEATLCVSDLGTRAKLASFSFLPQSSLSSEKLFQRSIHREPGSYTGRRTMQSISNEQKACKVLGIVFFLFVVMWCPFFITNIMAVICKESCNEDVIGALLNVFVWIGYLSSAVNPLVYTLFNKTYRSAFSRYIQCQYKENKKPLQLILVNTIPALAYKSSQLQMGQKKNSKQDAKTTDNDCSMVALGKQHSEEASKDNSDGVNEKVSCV
Sequence of PDE4D2 (h) (Q08499 303-809 limits assumed): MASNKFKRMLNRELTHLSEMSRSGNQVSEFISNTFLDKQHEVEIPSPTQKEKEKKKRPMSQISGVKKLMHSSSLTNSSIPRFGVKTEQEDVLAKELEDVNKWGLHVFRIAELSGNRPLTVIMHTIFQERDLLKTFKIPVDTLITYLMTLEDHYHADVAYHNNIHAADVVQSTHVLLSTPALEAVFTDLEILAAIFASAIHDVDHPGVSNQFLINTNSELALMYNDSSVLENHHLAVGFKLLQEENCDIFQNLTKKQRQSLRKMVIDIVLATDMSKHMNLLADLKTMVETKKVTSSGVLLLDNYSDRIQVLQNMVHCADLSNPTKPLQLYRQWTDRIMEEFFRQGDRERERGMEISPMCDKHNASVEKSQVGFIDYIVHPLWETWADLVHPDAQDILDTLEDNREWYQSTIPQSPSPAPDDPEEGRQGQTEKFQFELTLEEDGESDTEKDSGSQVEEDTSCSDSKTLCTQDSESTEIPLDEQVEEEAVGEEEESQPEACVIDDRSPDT
T2 sequence (P34972 whole entry): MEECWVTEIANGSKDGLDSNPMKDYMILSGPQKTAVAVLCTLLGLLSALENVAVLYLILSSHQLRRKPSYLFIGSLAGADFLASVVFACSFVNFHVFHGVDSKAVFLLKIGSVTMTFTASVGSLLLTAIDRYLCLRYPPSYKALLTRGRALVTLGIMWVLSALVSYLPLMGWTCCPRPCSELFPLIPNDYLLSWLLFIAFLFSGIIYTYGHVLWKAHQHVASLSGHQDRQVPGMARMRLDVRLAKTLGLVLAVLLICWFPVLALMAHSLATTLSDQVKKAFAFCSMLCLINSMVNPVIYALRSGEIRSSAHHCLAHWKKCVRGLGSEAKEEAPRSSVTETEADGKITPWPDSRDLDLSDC
Sequence of 5-HT1D (P28565 whole entry): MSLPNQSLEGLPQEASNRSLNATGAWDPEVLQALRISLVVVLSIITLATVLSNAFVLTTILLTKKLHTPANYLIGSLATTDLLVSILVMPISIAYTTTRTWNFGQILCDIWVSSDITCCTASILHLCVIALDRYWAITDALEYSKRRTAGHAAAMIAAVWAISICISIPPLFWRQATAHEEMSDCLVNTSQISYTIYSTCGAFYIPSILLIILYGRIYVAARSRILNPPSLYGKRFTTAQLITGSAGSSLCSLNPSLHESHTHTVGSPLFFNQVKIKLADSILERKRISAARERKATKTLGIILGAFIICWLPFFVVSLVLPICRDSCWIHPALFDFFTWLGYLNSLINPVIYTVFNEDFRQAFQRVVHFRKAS
T5 sequence (Q01727 whole entry): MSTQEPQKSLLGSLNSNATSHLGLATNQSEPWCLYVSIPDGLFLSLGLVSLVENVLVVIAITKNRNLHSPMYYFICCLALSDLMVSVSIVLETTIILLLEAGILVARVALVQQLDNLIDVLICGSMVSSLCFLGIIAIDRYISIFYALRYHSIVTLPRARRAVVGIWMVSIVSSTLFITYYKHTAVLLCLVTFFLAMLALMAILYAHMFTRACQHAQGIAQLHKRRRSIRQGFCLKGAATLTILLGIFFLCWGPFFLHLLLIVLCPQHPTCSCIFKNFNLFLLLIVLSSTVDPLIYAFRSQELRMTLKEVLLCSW
Sequence of β2 (h) (P07550 whole entry): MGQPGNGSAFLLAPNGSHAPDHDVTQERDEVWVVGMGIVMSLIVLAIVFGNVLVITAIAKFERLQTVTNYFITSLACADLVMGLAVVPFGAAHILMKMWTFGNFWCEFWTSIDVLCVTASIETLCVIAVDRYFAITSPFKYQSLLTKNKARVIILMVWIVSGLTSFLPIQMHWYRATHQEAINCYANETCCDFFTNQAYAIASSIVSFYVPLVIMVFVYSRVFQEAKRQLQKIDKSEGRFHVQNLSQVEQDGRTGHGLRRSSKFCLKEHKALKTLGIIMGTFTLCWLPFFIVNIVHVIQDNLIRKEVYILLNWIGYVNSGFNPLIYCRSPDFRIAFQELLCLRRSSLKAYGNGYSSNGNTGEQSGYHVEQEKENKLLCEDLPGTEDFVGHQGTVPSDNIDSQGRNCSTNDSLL
Sequence of 5-HT7 (h) (P34969 whole entry): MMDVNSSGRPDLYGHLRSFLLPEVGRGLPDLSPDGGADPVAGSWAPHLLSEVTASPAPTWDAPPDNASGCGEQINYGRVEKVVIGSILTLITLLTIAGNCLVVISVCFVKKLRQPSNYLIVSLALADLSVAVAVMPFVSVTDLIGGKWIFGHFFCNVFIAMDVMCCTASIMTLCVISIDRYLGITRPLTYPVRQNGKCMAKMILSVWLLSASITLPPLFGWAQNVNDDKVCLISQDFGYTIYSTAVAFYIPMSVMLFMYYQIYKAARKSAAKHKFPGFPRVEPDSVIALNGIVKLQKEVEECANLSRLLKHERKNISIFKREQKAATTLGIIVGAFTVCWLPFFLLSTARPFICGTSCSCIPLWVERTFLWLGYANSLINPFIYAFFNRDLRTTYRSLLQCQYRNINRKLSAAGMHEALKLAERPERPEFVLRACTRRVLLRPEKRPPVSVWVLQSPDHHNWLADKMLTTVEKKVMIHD
T6 sequence (Q9QUQ5 1-890 isoform Q9QUQ5-2): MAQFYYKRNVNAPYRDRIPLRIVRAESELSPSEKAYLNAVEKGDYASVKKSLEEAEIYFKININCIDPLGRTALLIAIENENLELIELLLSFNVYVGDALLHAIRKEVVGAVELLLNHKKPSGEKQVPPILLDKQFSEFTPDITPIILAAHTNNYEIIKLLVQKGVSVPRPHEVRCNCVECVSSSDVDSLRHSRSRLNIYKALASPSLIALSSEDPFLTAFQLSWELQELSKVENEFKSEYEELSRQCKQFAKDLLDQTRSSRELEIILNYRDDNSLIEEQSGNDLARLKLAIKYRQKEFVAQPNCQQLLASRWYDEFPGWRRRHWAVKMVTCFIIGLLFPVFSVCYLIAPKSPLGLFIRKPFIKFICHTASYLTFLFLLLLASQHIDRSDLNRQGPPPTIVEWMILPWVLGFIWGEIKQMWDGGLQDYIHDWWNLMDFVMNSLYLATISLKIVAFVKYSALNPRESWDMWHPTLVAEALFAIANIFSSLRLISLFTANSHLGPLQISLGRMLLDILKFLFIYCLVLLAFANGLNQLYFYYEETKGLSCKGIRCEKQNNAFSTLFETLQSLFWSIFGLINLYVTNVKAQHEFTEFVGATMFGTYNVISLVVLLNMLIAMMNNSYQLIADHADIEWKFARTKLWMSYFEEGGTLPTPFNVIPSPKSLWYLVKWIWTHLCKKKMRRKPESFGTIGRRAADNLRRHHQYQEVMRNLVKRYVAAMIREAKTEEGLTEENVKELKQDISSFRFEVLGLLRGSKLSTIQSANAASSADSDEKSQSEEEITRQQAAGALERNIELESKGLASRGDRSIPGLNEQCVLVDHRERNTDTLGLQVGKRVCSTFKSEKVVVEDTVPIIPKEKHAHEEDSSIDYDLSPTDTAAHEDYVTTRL

Compound: Cn1c(=O)n(CCCO)c(=O)c2c1nc(Oc1cccc(Cl)c1)n2Cc1ccc(Cl)cc1 [HC-070]
- immobility time (CD-1 mice; 0.3, 1 or 3 mg/kg PO, 60 min prior, CD-1 mice): reduced the immobility time; also recorded: significantly decreased
- IC50 (CD-1 mice; Mus musculus, read-out: IC50 of immobility versus average plasma exposure (PK-PD)): 58 nM
- calculated free brain concentration corresponding to PK-PD IC50 (CD-1 mice; male, CD-1 and C57BL/6, mouse, in vivo): 0.16 nM
- nonspecific tissue binding ([1]; 8 h, 1 μM): > 99%
- fraction unbound at 8 h, 1 μM ([1]; brain homogenate): 0.0028 ± 0.0002

Compound: Cn1c(=O)n(CCCO)c(=O)c2c1nc(Oc1cccc(OC(F)(F)F)c1)n2Cc1ccc(Cl)cc1 [HC-608]
- inhibition at 1 µM (PDE4D2 (h); read-out: % Inhibition 1st): 1.3%
- inhibition at 1 µM (PDE4D2 (h); read-out: % Inhibition 2nd): -2%
- inhibition at 1 µM (PDE4D2 (h); read-out: % Inhibition Mean): -0.3%
- % Inhibition 1st (rolipram): -4.6%
- % Inhibition 2nd (rolipram): 0.5%
- % Inhibition Mean (rolipram): -2.1%
- inhibition at 1 µM (β2 (h); read-out: % Inhibition 1st): -1.9%
- inhibition at 1 µM (β2 (h); read-out: % Inhibition 2nd): 0.5%
- inhibition at 1 µM (β2 (h); read-out: % Inhibition Mean): -0.7%
- inhibition at 1 µM (5-HT1D; read-out: % Inhibition 1st): -4.2%
- inhibition at 1 µM (5-HT1D; read-out: % Inhibition 2nd): -8.8%
- inhibition at 1 µM (5-HT1D; read-out: % Inhibition Mean): -6.5%
- % Inhibition 1st [2]: 28%
- % Inhibition 2nd [2]: 30.6%
- % Inhibition Mean [2]: 29.3%
- inhibition at 1 µM (5-HT2A (h); read-out: % Inhibition 1st): -4.3%
- inhibition at 1 µM (5-HT2A (h); read-out: % Inhibition 2nd): 6.9%
- inhibition at 1 µM (5-HT2A (h); read-out: % Inhibition Mean): 1.3%
- inhibition at 1 µM (5-HT7 (h); read-out: % Inhibition 1st): 12.1%
- inhibition at 1 µM (5-HT7 (h); read-out: % Inhibition 2nd): 10.9%
- inhibition at 1 µM (5-HT7 (h); read-out: % Inhibition Mean): 11.5%
- % Inhibition 1st (ATPase (Na+/K+)): 3.0%
- % Inhibition 2nd (ATPase (Na+/K+)): -1.5%
- % Inhibition Mean (ATPase (Na+/K+)): 0.8%
- inhibition at 1 µM (CB2 (h); read-out: % Inhibition 1st): 16.6%
- inhibition at 1 µM (CB2 (h); read-out: % Inhibition 2nd): 25.1%
- inhibition at 1 µM (CB2 (h); read-out: % Inhibition Mean): 20.9%
- inhibition at 1 µM (A3 (h); read-out: % Inhibition 1st): 28.3%
- inhibition at 1 µM (A3 (h); read-out: % Inhibition 2nd): 36.4%
- inhibition at 1 µM (A3 (h); read-out: % Inhibition Mean): 32.3%
- inhibition at 1 µM (5-HT2C (h); read-out: % Inhibition 1st): 12.1%
- inhibition at 1 µM (5-HT2C (h); read-out: % Inhibition 2nd): 12.6%
- inhibition at 1 µM (5-HT2C (h); read-out: % Inhibition Mean): 12.3%
- % Inhibition 1st (TNF-α (h)): 8.8%
- % Inhibition 2nd (TNF-α (h)): -8.6%
- % Inhibition Mean (TNF-α (h)): 0.1%
- inhibition at 1 µM (MC1; read-out: % Inhibition 1st): 1%
- inhibition at 1 µM (MC1; read-out: % Inhibition 2nd): -3.6%
- inhibition at 1 µM (MC1; read-out: % Inhibition Mean): -1.3%
- IC50 (mTRPC4): ~0.45 nM
- inhibition at 1 µM (MT1 (ML1A) (h); read-out: % Inhibition 1st): 2.2%
- inhibition at 1 µM (MT1 (ML1A) (h); read-out: % Inhibition 2nd): -0.9%
- inhibition at 1 µM (MT1 (ML1A) (h); read-out: % Inhibition Mean): 0.7%
